Substitutions are numbered along the chain they refer to. pIC50: −log10 of the molar value. “Also recorded” adds a separate entry of the source. Like-named read-outs stand apart in the source and are kept apart here.
Legend:
[1] = Stability in bovine serum-containing cell media (LC/MS); format: in vitro ADME; conditions: 20 µM, DMEM with 15% FBS, 24 h, 37 °C
Protocol: To be suitable for chemical probe and therapeutic applications, the warhead should show good stability. In general, we found the iminolactam warheads to be quite stable. Compound 1 was stable as a solid at room temperature for over 3 months. […] After 24‐h in aqueous buffer, compounds were treated with sodium cyanoborohydride. […] The synthetic strategy of in situ formation of imines by periodate treatment was pursued to avoid concerns of warhead reactivity with the ligand itself to either the peptide backbone or the phenoxyphenyl aryl group. This appears to have been unnecessary, at least for the iminolactam warhead. […] The more reactive ester imine may be forming semi‐stable cyclized products with the amide backbone, which have been observed previously with peptide aldehydes.^[ [51], [52] ^] Due to these issues, we selected compound P1b for further characterization.
Figure S17. Stability of cyclic imine inhibitors to serum-containing cell culture media. […] The protein fraction was then precipitated with addition of 2 volumes of 1:1 EtOH:acetonitrile and overnight incubation at -20 °C. Samples were centrifuged 16,000 g for 30 minutes. Supernatants were filtered through a 0.5 micro spin filter and evaporated with a speed vacuum. The compounds were resuspended in PBS and analzyed by LC/MS. […] Overlaid spectra of UV at 215 nm are shown and are representative of 3 replicates.

CBX8 ChD = target: T1, CBX8 ChD (Homo sapiens, UniProt Q9HC52); assay: Covalent conjugation to CBX8 ChD, UV integration on LC/MS; format: binding
T1 construct: CBX chromodomain constructs (addgene plasmid #25158 (CBX2), and #62514 (CBX8, provided by Cheryl Arrowsmith)); 6His; host or cells: E. coli (BL21 CodonPlus RIL or Rosetta 2)
T1 sequence (Q9HC52 11-69 limits assumed): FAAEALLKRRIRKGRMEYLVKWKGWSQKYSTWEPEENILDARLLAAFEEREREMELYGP
Protocol: Percent covalent conjugation was determined by UV integration on LC/MS after overnight incubation at 10 µM compound and protein at 37 °C.
2.3 In Vitro CBX ChD Labeling with Covalent Inhibitors. 10 µM purified CBX ChD was incubated with imine covalent inhibitors (10 µM) in PBS buffer (pH 7) at 37 °C or R.T. Protein labeling samples were precipitated using MeOH and CHCl3 at the volume ratio of MeOH:CHCl3:sample=3:0.5:1, washed twice using cold MeOH, and air dried. Dried protein pellets were resuspended in aqueous buffer (0.1% formic acid, 300 mM ammonium acetate).
Precipitated samples were analyzed on a C4 reversed-phase column (e.g., 2.1 × 150 mm, 3–5 µm particle size) using a linear gradient of solvent A (0.1% formic acid in water) and solvent B (0.1% formic acid in acetonitrile). Elution was monitored by UV absorbance at 215 nm, and mass spectra were acquired in positive ion mode to confirm the identities of unlabeled and labeled protein species.
Labeling yield (%)=AlabeledAlabeled+Aunlabeled×100
For P2, 10 µM purified CBX ChD was incubated with P2 (10 µM) in PBS buffer (pH 7) at 37 °C or R.T. for 1.5 hours, as well as 12 hours overnight. […] Dried protein pellets were resuspended in aqueous buffer (0.1% formic acid, 300 mM ammonium acetate), and protein labeling were characterized and quantitated by ESI LC-MS.

CBX8 Y39F = target: T2, CBX8 Y39F (Homo sapiens, UniProt Q9HC52, Y39F); assay: Labeling of CBX8 Y39F mutant (gel shift, LC/MS); format: binding; conditions: gel shift and LC/MS, 10 µM each, 37 °C
T2 construct: 6His (N); TEV site (ENLYFQG), read by me from the printed insert DNA (N); host or cells: E. coli (BL21 CodonPlus RIL or Rosetta 2), pET-28a(+)
T2 sequence (Q9HC52 11-69 Y39F limits assumed): T1 sequence (Q9HC52 11-69 limits assumed) with Y29F
Protocol: (§1) Observed masses are shown (expected average mass for CBX8 ChD = 8792 Da). The observed mass difference (913 Da) agrees with the expected mass change of 913 Da. b) Labeled protein was detected by gel shift on 16.5% Tris‐Tricine SDS‐PAGE. […] Gel analysis was conducted on a 2.5% agarose gel in 10 mM sodium borate buffer. […] Assays were conducted using SW2_113 as an FP probe (Figure S20) at 100 nM. All proteins were used at 2 µM in PBS (pH 7), 0.02% Tween 20. Error bars represent SD. […] (μM); no other compound label is printed beside the IC50 lines
(§2) We confirmed protein labeling through a gel shift assay on Tris‐Tricine SDS‐PAGE (Figure 5b). […] To validate labeling of the targeted tyrosine residue (Y39), this amino acid was mutated to phenylalanine. […] We additionally confirmed the labeling site as Y39 by trypsin digest and LC‐MS/MS analysis (Figure S9B).
(§3) For P2, 10 µM purified CBX ChD was incubated with P2 (10 µM) in PBS buffer (pH 7) at 37 °C or R.T. for 1.5 hours, as well as 12 hours overnight. Samples were precipitated using MeOH and CHCl3 at the volume ratio of MeOH:CHCl3:sample=3:0.5:1, washed twice using cold MeOH, and air dried. Dried protein pellets were resuspended in aqueous buffer (0.1% formic acid, 300 mM ammonium acetate), and protein labeling were characterized and quantitated by ESI LC-MS.

CBX2 ChD = target: T3, CBX2 ChD (Homo sapiens, UniProt Q14781); assay: Labeling of CBX2 ChD (gel shift, MS); format: binding; conditions: gel shift or MS
T3 construct: CBX chromodomain constructs (addgene plasmid #25158 (CBX2), and #62514 (CBX8, provided by Cheryl Arrowsmith)); 6His; host or cells: E. coli (BL21 CodonPlus RIL or Rosetta 2)
T3 sequence (Q14781 12-70 limits assumed): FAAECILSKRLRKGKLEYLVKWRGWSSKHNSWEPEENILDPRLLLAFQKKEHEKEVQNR
Protocol: as §1, §2, §3

CBX8 ChD Y39F = target: T4, CBX8 ChD Y39F (Homo sapiens, UniProt Q9HC52, Y39F); assay: Time-dependent fluorescence polarization displacement assay, CBX8 Y39F; format: binding; conditions: for pIC50: Figure 5d, CBX8 Y39F 2 µM, probe 100 nM
T4 construct: 6His (N); TEV site (ENLYFQG), read by me from the printed insert DNA (N); host or cells: E. coli (BL21 CodonPlus RIL or Rosetta 2), pET-28a(+)
T4 sequence (Q9HC52 11-69 Y39F limits assumed): T1 sequence (Q9HC52 11-69 limits assumed) with Y29F
Protocol: as §1
2.2 Fluorescence Displacement Assay to Evaluate Time-dependent potency of Imine Covalent Inhibitors to CBX ChD. Fluorescence polarization (FP) was measured by titration of CBX ChDs (CBX8 ChD/CBX8 ChD Y39F/CBX2 ChD) to a fluoresceine-labelled probe as previously reported ^1. Fluorescence displacement assays were performed in black 384-well plates with optical bottoms. Buffer used in FP assays consists of 100 mM Na2HPO4, 150 mM NaCl, 0.02% Tween 20. […] Two-fold dilutions of covalent inhibitors were used, starting with 100 µM as highest peptide concentration to 0.049 µM as the lowest. Four replicates were tested at each concentration. Fluorescence anisotropy was read at different time points. Raw data were analyzed using GraphPad Prism 7 following a “one site-Fit logIC50” competition model with any outliers (95 % confidence interval) being excluded.
Time-dependent fluorescence displacement assay Fluorescence polarization (FP) was measured by titration of CBX ChDs (CBX8 ChD/CBX8 ChD Y39F/CBX2 ChD) to a fluorescein-labelled probe as previously reported.^8 Fluorescence displacement assays were performed in black 384-well plates with optical bottoms. Buffer used in FP assays consists of 100 mM Na2HPO4, 150 mM NaCl, 0.02% Tween 20. […] Fluorescence anisotropy was read at different time points. […] Raw data were analyzed using GraphPad Prism 7 following a “one site-Fit logIC50” competition model with any outliers (95 % confidence interval) being excluded.

- % conj. to CBX8 at 37 °C Overnight 10 μM each (CBX8 ChD; 10 µM compound and protein, 37 °C, overnight): ~90%
- effect of GSH on CBX8 ChD labeling yield (CBX8 ChD; presence of 10 mM GSH): no effect on yield
- labeling of mutant CBX8 Y39F (CBX8 Y39F): fails to label
- labeling of CBX2 ChD (CBX2 ChD): no labeled protein was detected
- change in IC50 upon extended incubation (CBX8 ChD Y39F; CBX8 Y39F mutant): no change in IC50
- pIC50 (CBX8 ChD Y39F; read-out: IC50 at time 0): 4.92
- pIC50 (CBX8 ChD Y39F; IC50 at 20 h): 4.96
SMILES: CC[C@H](C)[C@H](NC(=O)[C@@H](NC(=O)c1ccc(Oc2ccccc2)cc1)C1CCCC1)C(=O)N[C@@H](CCCCN(CC)CCCCCCN1CCN=CC1=O)C(=O)N[C@@H](CO)C(N)=O [P1b]
- stability in bovine serum‐containing cell media [1]: no degradation or loss to the protein fraction; also recorded: minimal loss of compounds to the precipitated protein fraction or degradation
